Assay results as given in US20250332263A1, “SURFACTANT STABILIZERS” (NOVARTIS AG, priority 2021, published 2025).
“Also recorded” adds a separate entry of the source. Blank lines part the entries; values can stand above or below the substance they belong to.

Key:
Protein 5 = test: Protein stabilization, purity by SEC-UPLC; type: physicochemical; settings: Protein 5 formulation, 0.2% PLX188 or 0.04% PS20, PS80 or VEDS, one month at 30° C.
Protocol: A liquid formulation containing Protein 5 was prepared as herein described. […] (FIG. 8). A pull point was taken after this time and used for the following analysis.

[1] = Surfactant stability under oxidative stress (H2O2); type: physicochemical; settings: 0.25 M and 2.5 M H2O2, 6 days at 40° C., vs non-treated control
Protocol: (§1) Polysorbate 20/80 suffers from chemical and enzymatic degradation mechanisms as described earlier. In order to test the amphiphilic surfactants of the disclosure for stability against oxidative and hydrolytic stress, the following forced degradation assay was performed using hydrogen peroxide and various buffers to mimic those stress conditions. The aim was to mimic chemical degradation pathways that surfactants would encounter during shelf life.
(§2) H2O2(0.25 M and 2.5 M) was added to formulations containing surfactants and subsequently incubated for 6 days at 40° C. in order to mimic oxidative stress. In addition, surfactants were added to different buffer types (e.g., histidine, citrate, phosphate and succinate buffer) and exposed to accelerated degradation stress such as temperature stress (50° C. for 1 month) at different pH (5.5 and 6.5) in order to mimic chemical degradation pathways (e.g., oxidation, hydrolysis). Control samples were frozen to avoid degradation (FZ). Chromatography methods were used to determine the surfactant content of formulations after accelerated conditions by comparing it to the amount of surfactant spiked into the buffer at the beginning of the experiment.

[2] = Surfactant stability under pH and temperature stress in different buffers; type: physicochemical; settings: pH 5.5 and 6.5, 50° C. for 1 month, vs frozen control (FZ)
Protocol: as §1, §2

[3] = tested on: host cell proteins (HCPs) of Protein 4; test: Enzymatic degradation of surfactant in protein 4 formulation; type: physicochemical; settings: 0.02% PS80 or 0.04% other surfactants, one month at 5° C. or 40° C., HPLC
From the text: Therefore, a formulation containing protein 4 also contains the enzymes responsible for polysorbate degradations and it is a suitable proxy for testing the propensity of enzymatic degradation during shelf life in real-world conditions.

[4] = Quiescence stability study, oxidative and hydrolytic degradation of surfactant in Protein 2 formulation; settings: six months at 25° C.; for surfactant content left: HPLC main peak
Protocol: A pull point was taken every month and a half (TO, T1.5m, T3m, T4.5m and T6m) and frozen for storage.
The surfactant content was measured for all pull points of a specific surfactant in a single series by HPLC and the analysis was performed by a standard baseline correction followed by integration of the main peak, representing the integer (not degraded) surfactant.

protein 1 = test: Equilibrium surface tension, pendant-drop tensiometer (protein displacement at air/water interface); type: physicochemical; settings: surfactant in histidine buffer, absence or presence of protein 1, compared with protein 1 without surfactant; 60 min
Protocol: The aim of this experiment was to investigate the type of stabilization mechanism which the surfactants employ in protein-containing formulations. A Pendant-Drop Tensiometer was utilized to determine protein (API) displacement by surfactants at the air/water interface. Surfactant interface saturation mitigates the risk of interfacial stress for proteins and associated negative effects potentially impacting protein quality attributes.
The protein corresponding buffer was prepared and sterile filtered using a 0.22 μm filter unit. The surfactant in question was added into the buffer using a 5% stock solution as described earlier.
The buffer surfactant mix was aliquoted in 2 Nalgene bottles. To one of the two bottles was added the respective API in question to reach a final concentration of 1 mg/mL for protein 1 and 10 mg/mL for proteins 2 and 3.
Equilibrium surface tension was measured using the PAT-1M tensiometer (Sinterface). The system was rinsed 12 times with the sample to be measured. A hanging drop of constant volume (20 μL) was measured every second for 60 min. Drug substance samples with and without surfactants were measured at the same day to avoid operator, sample and day to day variations.

[5] = tested on: protein 1 (disordered protein); test: Orbital shaking forced degradation, particle count by micro-flow-imaging, Protein 1; type: physicochemical; settings: orbital shaking 250 rpm, ambient temperature, 0 h, 7 h and 24 h
Protocol: The API corresponding buffer was prepared with 20 mM Histidine, 220 mM Succrose pH 5.8 in water.
The aim of this experiment was to investigate the effect of amphiphilic surfactants to protect proteins from interfacial stress, such as that which is present during manufacturing, transport and application. As a proxy for this stress the forced degradation assay (orbital shaking), applying mechanical stress, was used in order to determine whether chosen surfactants stabilize three different protein API's (disordered protein, Fab, mAb) against mechanical stress (mitigating particle creation (protein aggregates)).
1.2 mL of sample was aliquoted in each 6R vial (2x). Vials of same sample were pooled after the study in order to generate enough volume for all analytical testing.
Mechanical stress was generated through orbital shaking at 250 rpm at ambient temperature for 0 h, 7 h, 24 h and 48 h using an orbital shaker. Samples were subsequently analyzed via micro-flow-imaging (MFI). Particle count >2 μm/mL was visualized by MF.

Basophile cells = test: Basophile activation assay (B-cell activation); type: cell-based, human; settings: compared to polysorbate and B-cell activating positive control
Protocol: Basophile activation assay: Human whole blood was used to purify B-cells using an in vitro B-cell activation kit (Cellonic, Basotest, Cat #10-0500). Basophile cells were incubated in 100 μL 1×wash buffer containing the final surfactant concentration as the correct dilutions were prepared beforehand. Cell labeling, lysis and fixation was performed according to manufacturer instructions and subsequently analyzed using a BD FORTESSA flow cytometer. Leucocytes are gated via forward and sideward scatter. The Basophile subpopulation was gated on CD123 and IgE staining. Finally, activated Basophile cells were identified via CD203c and CD63 gating. All fluorescently labeled antibodies were provided in the kit stated above.

dendritic cells = test: Dendritic cell activation; type: cell-based, human; settings: 48 h surfactant incubation, compared to LPS activated DC and no-treatment control
Protocol: Dendritic cell activation: Human whole blood was used to extract monocytes using MACS (magnetic activated cell sorting) according to manufacturer's instructions (Miltenyi Biotec Order no. 130-114-980). Cells were incubated for 6 days in respective differentiation media (Miltenyi DC differentiation medium order no. 130-094-812) resulting in dendritic cells. Cells were incubated in medium with surfactants in question for 48 h and subsequently stained for cell activation using fluorescently labeled antibodies (Mouse Anti-Human CD14 PerCP-Cy5.5 order no. 562692 from BD to check monocyte negative; Mouse Anti-Human CD11c BV605 from BD to check dendritic cell differentiation and Mouse Anti-Human CD80 FITC order no. 557226 from BD to check cell activation).

Platelets = test: Inhibition of platelet aggregation, Whole Blood Aggregometry (WBA); type: cell-based, human; settings: 0.04% or 0.01% surfactant, 10 minutes at 37° C.; agonists AA, TRAP6, collagen, ADP
Protocol: Human whole blood of 6 healthy volunteers was incubated with 0.04% or 0.01% surfactants for 10 minutes at 37° C. Saline solution was used as negative control. Platelets were activated with four independent agonists: arachidonic acid (AA), thrombin receptor activator peptide (TRAP6), collagen and ADP. Aggregation was measured through Whole Blood Aggregometry (WBA).
Whole Blood Aggregometry (WBA) consists of immerging electrodes into whole blood which measure the impedance between them. The addition of a platelet agonist activates the aggregation, resulting in an increase of impedance over time. This increase can be compared between a negative control and a testing sample to derive the degree of platelet inhibition.

protein purity, relative comparison between surfactants (Protein 5): lower purity
sum of impurities, relative comparison between surfactants (Protein 5): higher impurities
Substance: Polysorbate 20 [PS20]

surfactant content after oxidative stress (H2O2) [1]: stable; also recorded: minor loss
surfactant content after pH and temperature stress ([2]; citrate buffer): stable
surfactant content after pH and temperature stress ([2]; histidine buffer): decreased content
surfactant content after pH and temperature stress ([2]; phosphate buffer): decreased content
surfactant content after pH and temperature stress ([2]; succinate buffer): decreased content
surfactant content left [4]: ~5%
Substance: Polysorbate 80 [PS80]
surfactant content (enzymatic degradation by HCPs) [3]: Degradation is observed both at 5 °C and 40 °C

Substance: Vitamin E dimethyl glutarate [VEDG2.2]
equilibrium surface tension / surface activity (protein 1): even higher surface activity resulting in significant drop of surface tension
particle count >2 μm/mL [5]: perform better than TPGS-1000
number of activated B cells (%) upon surfactant treatment (Basophile cells): lower level of B-cell activation than TPGS1000
mean fluorescence intensity (MFI) fold change, dendritic cell (DC) activation (dendritic cells; listed as VEDG 2.2): perform better than TPGS1000; also recorded: no DC activation
surfactant content (enzymatic degradation by HCPs) [3]: not affected by enzymatic degradation
surfactant content left [4]: 88-90%
susceptibility to chemical degradation (surfactant content over time) ([4]; pull points every 1.5 months): minimal susceptibility to chemical degradation

Substance: Vitamin E dimethyl glutarate [VEDG3.3]
mean fluorescence intensity (MFI) fold change, dendritic cell (DC) activation (dendritic cells; listed as VEDG 3.3): perform better than TPGS1000; also recorded: no DC activation
inhibition of platelet aggregation (Platelets): comparable platelet inhibition values as PS80
